Measured values as given in patent US10000535B2, “Template-fixed peptidomimetics” (POLYPHOR LTD., priority 2007, dated 2018).
Non-standard residues stand in square brackets, D forms with d. Residues, ends and D or L forms follow the SMILES beside them. Aze = O=C(O)[C@@H]1CCN1

Experiments:
Assay type in all cases: cell-based
CCR1 = molecular target: T1, CCR1 (Homo sapiens, UniProt P32246); test: Selectivity calcium flux assay, chemokine receptor panel; settings: at 10 μM
T1 sequence (P32246 1-355): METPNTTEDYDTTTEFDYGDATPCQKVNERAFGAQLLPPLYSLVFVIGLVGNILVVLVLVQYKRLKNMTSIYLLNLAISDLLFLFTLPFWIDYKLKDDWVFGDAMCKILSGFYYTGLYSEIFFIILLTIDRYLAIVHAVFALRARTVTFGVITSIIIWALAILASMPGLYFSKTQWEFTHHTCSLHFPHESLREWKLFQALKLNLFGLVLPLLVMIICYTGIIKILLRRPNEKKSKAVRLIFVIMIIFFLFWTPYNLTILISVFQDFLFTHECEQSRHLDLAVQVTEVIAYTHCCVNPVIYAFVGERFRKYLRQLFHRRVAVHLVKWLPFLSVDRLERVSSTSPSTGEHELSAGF
Method: (§1) Selectivity was measured using the calcium flux assay on a panel of human chemokine receptor bearing cell lines (CCR1, CCR2, CCR3, CCR4, CCR5, CCR6, CCR7, CCR8, CCR9, CCR10, CXCR1, CXCR2, CXCR2, CXCR4, CXCR6 and CXCCR1) using the same method as above

CXCR4 chemokine receptor = CXCR4 chemokine receptor (Homo sapiens, UniProt P61073); test: as above; settings: at 10 μM
Method: as §1

CXCCR1 = molecular target: T2, CXCCR1 (Homo sapiens, UniProt P49238); test: as above; settings: at 10 μM
T2 sequence (P49238 1-355): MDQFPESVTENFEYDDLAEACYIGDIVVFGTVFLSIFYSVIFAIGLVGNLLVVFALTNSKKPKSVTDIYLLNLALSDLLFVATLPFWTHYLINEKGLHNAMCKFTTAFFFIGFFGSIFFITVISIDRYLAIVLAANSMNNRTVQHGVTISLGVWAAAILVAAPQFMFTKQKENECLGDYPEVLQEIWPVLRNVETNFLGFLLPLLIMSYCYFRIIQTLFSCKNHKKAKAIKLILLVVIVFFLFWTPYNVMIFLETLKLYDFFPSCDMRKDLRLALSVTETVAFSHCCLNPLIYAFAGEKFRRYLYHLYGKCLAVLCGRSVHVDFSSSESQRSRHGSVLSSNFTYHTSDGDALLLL
Method: as §1

CCR4 = molecular target: T3, CCR4 (Homo sapiens, UniProt P51679); test: as above; settings: at 10 μM
T3 sequence (P51679 1-360): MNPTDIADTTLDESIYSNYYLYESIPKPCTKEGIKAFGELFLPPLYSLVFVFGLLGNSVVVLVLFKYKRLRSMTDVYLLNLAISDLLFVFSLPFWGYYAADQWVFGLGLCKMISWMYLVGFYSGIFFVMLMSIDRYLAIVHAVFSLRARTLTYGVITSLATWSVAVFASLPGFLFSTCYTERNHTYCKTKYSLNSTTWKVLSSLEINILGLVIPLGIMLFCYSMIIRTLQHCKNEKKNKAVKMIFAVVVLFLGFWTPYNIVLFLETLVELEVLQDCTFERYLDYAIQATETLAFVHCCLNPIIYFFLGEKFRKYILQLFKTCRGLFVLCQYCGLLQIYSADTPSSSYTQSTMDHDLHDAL
Method: as §1

human CXCR3 = molecular target: T4, human CXCR3 (Homo sapiens, UniProt P49682); test: Calcium flux antagonism assay with human CXCL10; settings: 300-19 cells with human CXCR3, read-out: IC50% (μM) ± SD, CXCR3 receptor
T4 construct: expressed in transfected cells; host or cells: mouse pre-B cell line 300-19
T4 sequence (P49682 1-368): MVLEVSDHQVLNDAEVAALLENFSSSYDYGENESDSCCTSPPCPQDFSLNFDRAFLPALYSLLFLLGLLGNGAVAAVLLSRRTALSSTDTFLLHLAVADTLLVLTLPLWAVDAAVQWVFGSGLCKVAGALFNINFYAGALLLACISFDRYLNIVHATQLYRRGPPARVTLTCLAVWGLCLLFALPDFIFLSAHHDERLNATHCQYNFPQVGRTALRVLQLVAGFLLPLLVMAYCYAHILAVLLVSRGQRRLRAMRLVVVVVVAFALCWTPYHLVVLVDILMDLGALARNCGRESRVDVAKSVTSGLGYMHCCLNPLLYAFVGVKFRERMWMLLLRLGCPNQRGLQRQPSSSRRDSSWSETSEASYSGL
Method: The mouse pre-B cell line 300-19 was stably transfected with the cDNA encoding the human UTR2 receptor (GenBank Acc#NM_018949), and expression was confirmed with a positive calcium signal in response to human urotensin (Sigma Aldrich). Increases in intracellular calcium were monitored using a Flexstation 384 (Molecular Devices, Sunnyvale, Calif.). The cells were batch loaded with the Calcium 3 Assay kit (Molecular Devices) in assay buffer (Hanks Balanced salt solution, HBSS, 20 mM HEPES, pH 7.4, 0.1% BSA) for 1 h at room temperature and labeled cells were dispensed into either black 96 well or 384 well assay plates (Greiner). Calcium mobilization induced by urotensin or compounds was measured in the Flexstation 384 (excitation, […]) for 70 seconds. Agonist activity was determined by direct addition of ligand or peptides, while antagonists were identified by pre-incubation of compounds with cells prior to urotensin addition. A dose response curve (compound concentration versus % maximum response for urotensin) was determined for each active agonist and antagonist and was fitted to a four parameter logistic equation using SoftmaxPro 4.6 (Molecular Devices), from which EC50% and IC50% values were calculated. […]

human CCR10 = molecular target: T5, human CCR10 (Homo sapiens, UniProt P46092); test: Calcium flux antagonism assay with human CCL27; settings: at 10 μM
T5 construct: expressed in transfected cells; host or cells: mouse pre-B cell line 300-19
T5 sequence (P46092 1-362): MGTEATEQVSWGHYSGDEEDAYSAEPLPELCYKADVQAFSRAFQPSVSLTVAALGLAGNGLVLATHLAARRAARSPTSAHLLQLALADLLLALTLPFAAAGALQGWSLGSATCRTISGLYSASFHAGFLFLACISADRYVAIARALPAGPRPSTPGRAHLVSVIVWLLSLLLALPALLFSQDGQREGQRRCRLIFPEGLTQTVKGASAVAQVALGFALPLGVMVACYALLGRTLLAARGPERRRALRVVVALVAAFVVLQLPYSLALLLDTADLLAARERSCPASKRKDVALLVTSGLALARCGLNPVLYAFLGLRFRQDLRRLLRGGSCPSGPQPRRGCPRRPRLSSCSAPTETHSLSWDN
Method: The mouse pre-B cell line 300-19 was stably transfected with the cDNA encoding the human UTR2 receptor (GenBank Acc#NM_018949), and expression was confirmed with a positive calcium signal in response to human urotensin (Sigma Aldrich). Increases in intracellular calcium were monitored using a Flexstation 384 (Molecular Devices, Sunnyvale, Calif.). The cells were batch loaded with the Calcium 3 Assay kit (Molecular Devices) in assay buffer (Hanks Balanced salt solution, HBSS, 20 mM HEPES, pH 7.4, 0.1% BSA) for 1 h at room temperature and labeled cells were dispensed into either black 96 well or 384 well assay plates (Greiner). Calcium mobilization induced by urotensin or compounds was measured in the Flexstation 384 (excitation, […]) for 70 seconds. Agonist activity was determined by direct addition of ligand or peptides, while antagonists were identified by pre-incubation of compounds with cells prior to urotensin addition. A dose response curve (compound concentration versus % maximum response for urotensin) was determined for each active agonist and antagonist and was fitted to a four parameter logistic equation using SoftmaxPro 4.6 (Molecular Devices), from which EC50% and IC50% values were calculated.
Peptides for CCR10 (Marchese et. al. 1994, Homey et. al.) and CXCR3 (Loetscher et. al. 1998, Marchese et. al. 1995) antagonism were assayed in a mouse pre-B cell line 300-19 stably transfected with either human CCR10 or CXCR3 (Marchese et. al. 1995). Antagonism at each receptor was measured with a calcium flux assay in these cells as described above for UTR2 assays using human CCL27 and human CXCL10 (Cole et. al.) for CCR10 and CXCR3 respectively.
as §1

Sequence of CXCR4 chemokine receptor (P61073 whole entry): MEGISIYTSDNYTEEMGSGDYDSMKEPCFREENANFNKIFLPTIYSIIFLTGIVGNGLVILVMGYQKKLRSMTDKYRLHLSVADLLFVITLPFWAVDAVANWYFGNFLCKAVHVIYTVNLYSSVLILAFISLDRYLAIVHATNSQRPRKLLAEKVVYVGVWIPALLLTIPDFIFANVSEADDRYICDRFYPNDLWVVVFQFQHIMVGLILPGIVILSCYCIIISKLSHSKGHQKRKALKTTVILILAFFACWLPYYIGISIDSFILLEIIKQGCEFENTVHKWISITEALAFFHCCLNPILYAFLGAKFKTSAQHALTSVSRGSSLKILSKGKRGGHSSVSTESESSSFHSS

selectivity against CCR1 (CCR1)	selectivity against CXCR4 chemokine receptor (CXCR4 chemokine receptor)	selectivity against CXCCR1 (CXCCR1)	selectivity against CCR4 (CCR4)	IC50 (human CXCR3)	selectivity against CCR10 (human CCR10)	Structure (SMILES)
highly selective	highly selective	highly selective	highly selective	8.6 µM	highly selective	N=C(N)NCCC[C@@H]1NC(=O)[C@H](Cc2c[nH]c3ccccc23)NC(=O)[C@H](Cc2ccc(O)cc2)NC(=O)[C@@H]2CCN2C(=O)[C@H]2CCCN2C(=O)CNC1=O [Example 15] (cyclo(YWRG[dP][Aze]))
highly selective	highly selective	highly selective	highly selective	8.1 µM	highly selective	C[C@@H]1NC(=O)[C@H](CCCNC(=N)N)NC(=O)[C@H](Cc2c[nH]c3ccccc23)NC(=O)[C@H](Cc2ccc(O)cc2)NC(=O)[C@@H]2CCN2C(=O)[C@H]2CCCN2C1=O [Example 16] (cyclo(YWRA[dP][Aze]))
